Measured values from BindingDB's records for doi:10.1111/cbdd.12463 (University of California San Diego, 2015).

Key:
Conditions in all cases: pH 7.5
[1] = biological target: T1, Decaprenyl diphosphate synthase (Mycobacterium tuberculosis (strain CDC 1551 / Oshkosh), UniProt P9WFF6); test: DPPS Inhibition (GPP based) Assay
T1 sequence (P9WFF6 whole entry): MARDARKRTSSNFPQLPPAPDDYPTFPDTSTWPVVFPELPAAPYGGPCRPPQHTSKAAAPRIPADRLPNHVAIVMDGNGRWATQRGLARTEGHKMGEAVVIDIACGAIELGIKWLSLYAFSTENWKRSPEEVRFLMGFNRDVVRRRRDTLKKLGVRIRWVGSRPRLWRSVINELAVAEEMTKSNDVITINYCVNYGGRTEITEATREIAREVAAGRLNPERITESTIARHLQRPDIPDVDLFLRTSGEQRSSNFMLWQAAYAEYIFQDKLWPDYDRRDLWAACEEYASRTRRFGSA
Excerpt: We screened an in-house library of 43 compounds using GPP as substrate.

[2] = biological target: T1, Decaprenyl diphosphate synthase; test: DPPS Inhibition (trans FPP based) Assay
Excerpt: We screened an in-house library of 53 compounds using trans-FPP as substrate.

[3] = biological target: T1, Decaprenyl diphosphate synthase; test: DPPS Inhibition (cis FPP based) Assay
Excerpt: We screened an in-house library of 19 compounds using cis-FPP as substrate.

| Structure (SMILES) | IC50 [1] | IC50 [2] | also measured |
| --- | --- | --- | --- |
| CC(C)=CCC/C(C)=C/COc1ccc(C(=O)/C=C(\O)C(=O)O)cc1 [BPH-1379] | 4.1 µM |  |  |
| C=CC/C=C\C/C=C\CCCCCCCc1cccc(O)c1C(=O)O [6-[8(Z),11(Z),14-pentadecatrienyl]salicylic acid] |  | 280 µM |  |
| O=P(O)(O)C(O)(c1cccc(-c2ccccc2)c1)P(=O)(O)O [(biphenyl-3-yl-hydroxy-phosphono-methyl)-phosphonic acid] |  | 40 µM |  |
| O=P(O)(O)C(O)(c1cccc(-c2cccc(-c3ccccc3)c2)c1)P(=O)(O)O [BPH-640] | 0.41 µM |  | IC50 [3]: 0.61 µM |
| CCCCCCCCOc1cccc(P(=O)(CC(=O)C(=O)O)OCC)c1 (stereo not given) [BPH-1389] | 2.6 µM |  |  |
| CCCCCCCOc1cccc(C(=O)Nc2ccccc2C(=O)O)c1 [BPH-1167] | 0.133 µM |  |  |
| CCCCCCCCCCCCNCC(P(=O)(O)O)P(=O)(O)O [1-[(n-Dodec-1-ylamino)ethyl]1,1-bisphosphonic acid] |  | 370 µM |  |
| CCCCCCCCCCCCSc1ccccc1C(=O)O [BPH-940] |  | 127 µM |  |
| O=P(O)(O)C(O)(Cc1cccc(-c2cc(F)cc(F)c2)c1)P(=O)(O)O [BPH-309] |  | 1.7 µM |  |
| O=C(O)c1ccccc1SCc1cccc(Oc2ccccc2)c1 [BPH-1125] | 1.2 µM |  | IC50 [3]: 30 µM |
| O=P(O)(O)[C@@H](CCCc1cccc(Oc2ccccc2)c1)S(=O)(=O)O [BPH-652] |  | 113 µM |  |
| CCCCCCC1=C(C[N+](C)(C)C)C(=O)c2ccccc2C1=O [BPH-1474] | 7 µM |  |  |
| O=P(O)(O)C(O)(CCc1cccc(-c2cccc3c2oc2ccccc23)c1)P(=O)(O)O [BPH-646] |  | 363 µM |  |
| CCCCCCCCCCOc1cc(C(=O)Nc2ccc(S(N)(=O)=O)cc2C(=O)O)cc(C(=O)OC)c1 [BPH-1257] | 1.1 µM |  |  |
| O=P(O)(O)C(O)(Cc1cccc(-c2cccc(NS(=O)(=O)c3ccc4ccccc4c3)c2)c1)P(=O)(O)O [(1-hydroxy-2-{3-[3-(naphthalene-2-sulfonamido)phenyl]phenyl}-1-phosphonoethyl)phosphonic acid] |  | 8.2 µM |  |
| CCCCCCCCCCOc1cccc(COc2ccc(S(=O)(=O)N3CCN(C(C)=O)CC3)cc2C(=O)O)c1 [BPH-1165] | 3 µM |  |  |
| O=P(O)(O)C(O)(Cc1ccc(-c2ccc(-c3ccccc3)cc2)cc1)P(=O)(O)O [BPH-626] |  | 51 µM |  |
| O=C(/C=C/c1ccc(O)c(O)c1)OC1CC(O)(C(=O)O)CC(O)C1O (stereo not given) [BPH-1068] | 2.3 µM |  |  |
| CCCCCCCCCCOc1cccc(COc2ccccc2C(=O)O)c1 [BPH-1150] | 0.7 µM |  |  |
| O=P(O)(O)C(O)(Cc1ccc(-c2ccccc2-c2ccccc2)cc1)P(=O)(O)O [BPH-624] |  | 5.4 µM |  |
| CCCCCCCCCCCCOc1ccc[n+](CC(P(=O)(O)O)P(=O)(O)O)c1 [BPH-716] |  | 77 µM |  |
| Cc1ccc(S(=O)(=O)N2CCN(c3ccc(C(=O)/C=C(\O)C(=O)O)cc3)CC2)cc1 [BPH-1380] |  |  | IC50 [3]: 20 µM |
| CCCCCCCCCCCCCCCn1cc[n+](CC(O)(P(=O)(O)O)P(=O)(O)O)c1 [BPH-1325] |  |  | IC50 [3]: 36 µM |
| NCCc1cccc(C#Cc2ccc(C#Cc3cccc(CCN)c3)cc2)c1 [BPH-1427] | 3.2 µM |  |  |

| Structure (SMILES) | IC50 [1] | IC50 [2] | also measured |
| --- | --- | --- | --- |
| NC(=O)c1cc(NC(=O)c2ccc(C(=O)Nc3cc(C(N)=O)cc(C4=NCCN4)c3)cc2)cc(C2=NCCN2)c1 [100873, 18] | 8.4 µM |  |  |
| CCCCCCCCOc1cccc(C(=O)Nc2cc(F)c(F)cc2C(=O)O)c1 [BPH-1455] | 0.279 µM |  |  |
| O=P(O)(O)C(O)(Cc1cccc(-c2ccccc2)c1)P(=O)(O)O [BPH-294] |  | 7.5 µM |  |
| CCCCCCCCOc1ccc(C(=O)CSCC(=O)O)cc1 [BPH-1391] |  |  | IC50 [3]: 82 µM |
| O=P(O)(O)C(O)(CCc1ccc(-c2ccccc2)cc1)P(=O)(O)O [BPH-665] |  | 13 µM |  |
| C=CCN(C)CCCCCCCCCCCCCCCC(=O)OC [BPH-922] |  | 620 µM |  |
| O=P(O)(O)C(O)(Cc1cccc(-c2ccc(-c3ccccc3)cc2)c1)P(=O)(O)O [{1-hydroxy-2-[3-(4-phenylphenyl)phenyl]-1-phosphonoethyl}phosphonic acid] |  | 31 µM |  |
| CCCCCCCCCCCCCCSc1ccccc1C(=O)O [BPH-948] | 0.036 µM |  |  |
| CCCCCCCCOc1cccc(CNC(=O)/C=C(\O)C(=O)O)c1 [BPH-1305] | 6.3 µM |  |  |
| CCCCCCCCc1cc[n+](CC(P(=O)(O)O)P(=O)(O)O)cc1 [BPH-717] |  | 113 µM |  |
| CCCCCCCCCCCCOc1cccc(O)c1C(=O)O [BPH-1065] | 4.5 µM |  |  |
| O=C(O)/C(O)=C/C(=O)c1ccc(N2CCN(C(=O)c3cccc(-c4ccccc4)c3)CC2)cc1 [BPH-1381] |  |  | IC50 [3]: 15 µM |
| CCCCCCCCCCOc1cccc(CSc2ccccc2C(=O)O)c1 [BPH-1102] |  |  | IC50 [3]: 19 µM |
| O=P(O)(O)C(O)(CCc1cccc(-c2ccccc2-c2ccccc2)c1)P(=O)(O)O [BPH-621] |  | 30 µM |  |
| O=P(O)(O)C(O)(Cc1ccc(-c2cccc(-c3ccccc3)c2)cc1)P(=O)(O)O [BPH-625] |  | 291 µM |  |
| O=C(c1ccccc1)c1ccc(OCCCCCC[n+]2ccccc2)cc1 [BPH-921] |  | 880 µM |  |
| O=P(O)(O)C(C[n+]1ccc(-c2ccc(-c3ccccc3)cc2)cc1)P(=O)(O)O [BPH-632] |  | 498 µM |  |
| CCCCCCCCOc1cccc(C(=O)Nc2ccccc2P(=O)(O)O)c1 [BPH-1440] | 0.76 µM |  |  |
| CCCCCCCCCCCCCCOc1cc([N+](=O)[O-])ccc1C(=O)O [BPH-965] | 1 µM |  |  |
| O=P(O)(O)C(O)(CCc1cccc(-c2cccc(-c3ccccc3)c2)c1)P(=O)(O)O [BPH-622] |  | 55 µM |  |
| CCCCCCCCOc1cccc(C(=O)N(C)c2cccc(P(=O)(O)O)c2)c1 [BPH-1433] | 0.49 µM |  |  |
| O=P(O)(O)C(C[n+]1ccc(-c2cccc3c2oc2ccccc23)cc1)P(=O)(O)O [BPH-642] |  | 114 µM |  |
| CCCCCCCCOc1cccc(CO/C=C/C=C(\C=C\C(=O)O)S(=O)(=O)N(C)C)c1 [BPH-1152] |  |  | IC50 [3]: 83 µM |
| NCCc1cc(Br)cc(C#Cc2ccc(C#Cc3cc(Br)cc(CCN)c3)cc2)c1 [BPH-1419] | 0.57 µM |  |  |

| Structure (SMILES) | IC50 [1] | IC50 [2] | also measured |
| --- | --- | --- | --- |
| O=P(O)(O)C(O)(Cc1cccc(-c2cccc(-c3ccccc3)c2)c1)P(=O)(O)O [{1-hydroxy-2-[3-(3-phenylphenyl)phenyl]-1-phosphonoethyl}phosphonic acid] |  | 18 µM |  |
| O=P(O)(O)C(O)(Cc1ccc(-c2ccc(Cl)cc2)cc1)P(=O)(O)O [[2-(4'-Chloro-biphenyl-4-yl)-1-hydroxy-1-phosphono-ethyl]-phosphonic acid] |  | 1.5 µM |  |
| CCCCCCCCCCOc1cccc(C(=O)Nc2ccc(S(N)(=O)=O)cc2C(=O)O)c1 [BPH-1256] | 0.041 µM |  |  |
| O=P(O)(O)C(CNc1cccc(-c2ccccc2)c1)P(=O)(O)O [2-(biphenyl-3-ylamino)ethane-1,1-diyldiphosphonic acid] |  | 17 µM |  |
| CCn1c2ccccc2c2cc(NC(=O)/C=C(\O)C(=O)O)ccc21 [BPH-1149] | 2 µM |  |  |
| CCCCCCCCOc1cccc(C(=O)Nc2cc(S(C)(=O)=O)ccc2C(=O)O)c1 [BPH-1467] | 0.138 µM |  |  |
| O=P(O)(O)C(O)(Cc1ccc(-c2cccc(NS(=O)(=O)c3ccc(-c4ccccc4)cc3)c2)cc1)P(=O)(O)O [BPH-781] |  | 66 µM |  |
| O=P(O)(O)C(CCCc1ccc(-c2ccccc2)cc1)P(=O)(O)O [(4-Biphenyl-4-yl-1-phosphono-butyl)-phosphonic acid] |  | 1.6 µM |  |
| O=P(O)([CH2][Na])C(O)(Cc1ccc(-c2ccccc2)cc1)P(=O)(O)[CH2][Na] (stereo not given) [BPH-310] |  | 8.8 µM |  |
| C/C=C\C(=C/CC(=O)Nc1ccc(OC(F)(F)F)cc1C(=O)O)OCCCCCCCC [BPH-1477] | 0.043 µM |  |  |
| CCCCCCCCOc1cccc(C(=O)Nc2ccc(S(N)(=O)=O)cc2C(=O)O)c1 [BPH-1255] |  |  | IC50 [3]: 65 µM |
| O=P(O)(O)C(O)(Cc1cccc(-c2cccc(NS(=O)(=O)c3ccc(-c4ccccc4)cc3)c2)c1)P(=O)(O)O [BPH-782] |  | 23 µM |  |
| O=P(O)(O)C(Nc1cccc(-c2ccccc2)c1)P(=O)(O)O [[(Biphenyl-3-ylamino)-phosphono-methyl]-phosphonic acid] |  | 6.3 µM |  |
| CCCCCCCCOc1cccc(C(=O)Nc2cccc(P(=O)(O)O)c2)c1 [BPH-1432] | 0.21 µM |  |  |
| O=P(O)(O)C(Nc1ccc(-c2ccccc2)cc1)P(=O)(O)O [(biphenyl-4-ylamino)methylenediphosphonic acid] |  | 4.6 µM |  |
| CCCCCCCCOc1ccc(C(=O)/C=C(\O)C(=O)O)cc1 [BPH-1330] | 20 µM |  |  |
| CCCCCCOc1ccc(C(=O)/C=C(\O)C(=O)O)cc1 [BPH-1378] | 10 µM |  |  |
| CCCCCCCCOc1cccc(C(=O)Nc2ccc(Cl)cc2C(=O)O)c1 [BPH-1466] | 0.156 µM |  |  |
| CCCCCCCCCCOc1cccc(COc2ccccc2P(=O)(O)O)c1 [BPH-1159] |  |  | IC50 [3]: 55 µM |
| O=P(O)(O)C(O)(Cc1cccc(-c2cccc(NS(=O)(=O)c3cccc(S(=O)(=O)Nc4cccc(-c5cccc(CC(O)(P(=O)(O)O)P(=O)(O)O)c5)c4)c3)c2)c1)P(=O)(O)O [BPH-789] | 0.36 µM | 5.4 µM |  |
| O=P(O)(O)C(O)(Cc1ccc(-c2cccc(NS(=O)(=O)c3ccc4ccccc4c3)c2)cc1)P(=O)(O)O [BPH-780] |  | 3.8 µM |  |
| O=P(O)(O)C(O)(c1ccc(-c2ccccc2)cc1)P(=O)(O)O [(Biphenyl-4-yl-hydroxy-phosphono-methyl)-phosphonic acid] |  | 17 µM |  |
| O=P(O)(O)C(O)(Cc1cccc(-c2ccc(F)cc2F)c1)P(=O)(O)O [[2-(2',4'-Difluoro-biphenyl-3-yl)-1-hydroxy-1-phosphono-ethyl]-phosphonic acid] |  | 4.3 µM |  |
| O=C(Nc1ccc(CCC2=NCCN2)cc1)c1ccc(C(=O)Nc2ccc(CCC3=NCCN3)cc2)cc1 [BPH-1413] | 5.8 µM |  |  |
